# In patent publication US20120122923A1, “DUAL MOLECULES CONTAINING A PEROXIDE DERIVATIVE, THEIR SYNTHESIS AND THERAPEUTIC USES” (SANOFI-AVENTIS, priority 2006, published 2012):
# Like-named read-outs stand apart in the source and are kept apart here.
# How the values were obtained:
# [1] = system: P. falciparum FcB1-Columbia strain; test: Chemosensitivity test (radioactive micromethod, tritiated hypoxanthine incorporation), FcB1-Columbia strain; assay type: cell-based; conditions: Plasmodium falciparum, read-out: IC50 (concentration required to inhibit parasite growth by 50%)
# Description: (§1) Strains of P. falciparum were cultivated continuously using Trager and Jensen's method (Science, 1976, 193, 673-675): the parasites were maintained in human red blood corpuscles (O±), diluted to a blood parasite level of 2% in RPMI 1640 medium supplemented with 25 mM Hepes+24 mM NaHCO3+2 mM L-glutamine and complemented with 5% human serum from all groups.
# (§2) The parasites were incubated at 37° C., in a moist atmosphere and 5% CO2.
# The antimalarial activity tests were carried out using the radioactive micromethod of Desjardins et al. (Antimicrob. Agents Chemother., 1979, 16, 710-718). Each molecule was tested in triplicate. The tests were carried out in 96 well microplates. The P. falciparum strains were cultured in RPMI 1640 solutions complemented with 5% human serum with haematocrit at 2% and a blood parasite level of 1.5%. For each test, the parasites were incubated with decreasing concentrations of test compounds for 48 h at 37° C., in a moist atmosphere and 5% CO2. The artemisinin and chloroquine diphosphate were used as reference molecules. The first dilution of the test compounds was carried out at 1 mg/ml in dimethylsulphoxide. […] Parasite growth was measured by the incorporation of tritiated hypoxanthine (added 24 h after beginning exposure to the test compound) and compared with the incorporation in the absence of the test compound (taken as 100%). […]
# [2] = system: P. falciparum FcM29-Cameroon strain; test: Chemosensitivity test (radioactive micromethod, tritiated hypoxanthine incorporation), FcM29-Cameroon strain; assay type: cell-based; conditions: Plasmodium falciparum, 48 h, read-out: IC50 (concentration required to inhibit parasite growth by 50%)
# Description: as §1, §2
# The antimalarial activity tests were carried out using the radioactive micromethod of Desjardins et al. (Antimicrob. Agents Chemother., 1979, 16, 710-718). Each molecule was tested in triplicate. The tests were carried out in 96 well microplates. The P. falciparum strains were cultured in RPMI 1640 solutions complemented with 5% human serum with haematocrit at 2% and a blood parasite level of 1.5%. For each test, the parasites were incubated with decreasing concentrations of test compounds for 48 h at 37° C., in a moist atmosphere and 5% CO2. The artemisinin and chloroquine diphosphate were used as reference molecules. The first dilution of the test compounds was carried out at 1 mg/ml in dimethylsulphoxide. The dilution series for the successive daughter solutions was also prepared in dimethylsulphoxide. Each daughter dilution was then diluted to 1/50th in RPMI 1640 complemented with 5% human serum, all of the dilutions being made at 37° C. Said dilutions were then added to the parasites in culture in the microplates. After adding the test compound, the parasites were cultured in RPMI 1640 with 5% human serum and 1% dimethylsulphoxide. Parasite growth was measured by the incorporation of tritiated hypoxanthine (added 24 h after beginning exposure to the test compound) and compared with the incorporation in the absence of the test compound (taken as 100%). The values for IC50 (concentrations required to inhibit parasite growth by 50%) were determined by plotting the percentage inhibition as a function of the logarithm of the dose using GraphPad Prism 4® processing software (GraphPad software, Inc., 5755 Oberlin Drive, #110, San Diego, Calif. 92121, USA).
# [3] = Metabolic stability on human hepatic microsomes; assay type: in vitro ADME; conditions: for Percentage metabolization: human hepatic microsomes 1 mg/ml, 5 μM substrate, 1 mM NADPH, 20 minutes at 37° C., degradation with respect to T0
# Description: These experiments were carried out on human hepatic microsomes in the presence of NADPH cofactor, necessary for the activity of the principal enzymes, namely cytochromes P-450 (CYP) and flavine mono-oxygenases (FMO). […] After 20 minutes, the reaction was stopped by adding 1 volume of acetonitrile. The supernatant was then removed after centrifuging (speed 3000 g for 10 minutes at 4° C.). The supernatant was analysed by high performance liquid chromatography coupled to a mass spectrometer (LC-MS/MS) and the degradation of each of the test compounds was calculated as a percentage (%) with respect to T0. The microsomal fractions were prepared from human hepatic tissue deriving from at least 12 different donors and frozen at −80° C. The tissue was defrosted then dried, weighed and cut into thin sheets before homogenizing. The tissue was homogenized using a Potter-Elvejheim type homogenizer at +4° C. The tissue homogenates were then centrifuged at 10000 g for 30 minutes at +4° C. […] The residue was finally taken up into suspension in a final volume of KH2PO4/K2HPO4 buffer containing 20% (v/v) of glycerol (1 ml for 2 grams of tissue). The hepatic microsomal fractions obtained were divided into aliquots (500 μl), frozen rapidly in liquid nitrogen and kept frozen at −80° C. until use. concentration of microsomal proteins: 1 mg/ml; concentration of BSA (bovine serum albumin (BSA): 1 mg/ml; concentration of substrate (test compound): 5 μM; CYP and FMO co-factors: 1 mM NADPH; Phosphate buffer (pH 7.4): 10 mM. • The reaction was initiated by adding 1 mM of NADPH and incubating for 20 minutes at 37° C., with stirring. The reaction was stopped by adding 1 volume of cold acetonitrile. • Total incubation volume=300 μl
# [4] = FcM29-Cameroon strain (very strongly chloroquine-resistant), in human red blood corpuscles
# [5] = human hepatic microsomes, from Table 2
Percentage metabolization [3],melting point,Structure (SMILES),also measured
11%,176 °C (dec.),"CC1(C)COC2(CCC(NC3CCC(Nc4ccnc5cc(Cl)ccc45)CC3)CC2)OO1 (stereo not drawn) [PA1103, N-(7-chloro-quinolin-4-yl)-N′-(3,3-dimethyl-1,2,5-trioxa-spiro[5.5]undec-9-yl)-cyclohexane-trans-1,4-diamine]","IC50 [2, 4]: 6 nM; times less degraded than chloroquine [3, 5]: about 3 times; times less degraded than the prior art compounds [3, 5]: about 10 times; stability in human hepatic microsomes compared with the other test compounds ([3]; in words): much more stable"
100%,,"C[C@H]1[C@H](OC(=O)CCC(=O)O)O[C@@H]2O[C@@]3(C)CC[C@H]4[C@H](C)CC[C@@H]1[C@@]24OO3 [artesunate, reference compound]",
,166 °C (dec.),"CC1OOC2(CCC(NC3CCC(Nc4ccnc5cc(Cl)ccc45)CC3)CC2)OC1C (stereo not drawn) [PA1255, N-(7-chloro-quinolin-4-yl)-N′-(3,4-dimethyl-1,2,5-trioxa-spiro[5.5]undec-9-yl)-cyclohexane-trans-1,4-diamine]",

# Continued, compound first:
Structure (SMILES),Percentage metabolization [3],melting point,also measured
"CCN(CC)CCCC(C)Nc1ccnc2cc(Cl)ccc12 (centres unmarked) [chloroquine, reference compound]",29%,,"IC50 ([1]; FCB1, 48 h): 66 nM; IC50 [2]: 258 nM"
"CC1(C)COC2(CCC(NC3CCC(Nc4cc(C(F)(F)F)nc5c(C(F)(F)F)cccc45)CC3)CC2)OO1 (stereo not drawn) [PA1251, N-(2,8-bis-trifluoromethyl-quinolin-4-yl)-N′-(3,3-dimethyl-1,2,5-trioxa-spiro[5.5]undec-9-yl)-cyclohexane-trans-1,4-diamine]",,168 °C (dec.),
"CC1(C)COC2(CCC(NC3CCC(Nc4ccnc5ccc(OC(F)(F)F)cc45)CC3)CC2)OO1 (stereo not drawn) [PA1305, N-(6-trifluoromethoxy-quinolin-4-yl)-N′-(3,3-dimethyl-1,2,5-trioxa-spiro[5.5]undec-9-yl)-cyclohexane-trans-1,4-diamine]",,165 °C (dec.),
"Clc1ccc2c(NCCN3CCC4(CC3)OCC3(CCCCC3)OO4)ccnc2c1 [PA1110, reference compound]",98%,,
"CC1(C)COC2(CCC(N[C@@H]3CCCC[C@H]3Nc3ccnc4cc(Cl)ccc34)CC2)OO1 (stereo partly drawn) [PA1188, N-(7-chloro-quinolin-4-yl)-N′-(3,3-dimethyl-1,2,5-trioxa-spiro[5.5]undec-9-yl)-cyclohexane-trans-1,2-diamine]",,,"IC50 [2, 4]: 4 nM"
"CC1(C)COC2(CCC(NC3CCC(Nc4ccnc5cc(C(F)(F)F)ccc45)CC3)CC2)OO1 (stereo not drawn) [PA1252, N-(3,3-dimethyl-1,2,5-trioxa-spiro[5.5]undec-9-yl)-N′-(7-trifluoromethyl-quinolin-4-yl)-cyclohexane-trans-1,4-diamine]",,166.5 °C (dec.),
"C[C@@H]1CC[C@H]2[C@@H](C)C(=O)O[C@@H]3O[C@@]4(C)CC[C@@H]1[C@]32OO4 [artemisinin, reference compound]",,,"IC50 ([1]; FcB1-Columbia strain (moderately chloroquine-resistant), in human red blood corpuscles, 48 h): 11 nM; IC50 [2, 4]: 5 nM"
"CC(C)C1=C[C@H]2OC3(CCC(NCCNc4ccnc5cc(Cl)ccc45)CC3)OO[C@H]2CC1 (some centres unmarked) [DU1302, reference compound]",95-100%,,
"CN(C)c1ccc2nccc(NC3CCC(NC4CCC5(CC4)OCC(C)(C)OO5)CC3)c2c1 (stereo not drawn) [PA1253, N-(3,3-dimethyl-1,2,5-trioxa-spiro[5.5]undec-9-yl)-N′-(6-dimethylamino-quinolin-4-yl)-cyclohexane-trans-1,4-diamine]",,193 °C (dec.),
